# Columns and labels:
# [1] = (§1) Partition coefficient (logD7.4); settings: octanol/water, pH 7.4
# [2] = octanol/water
# Description: Partition coefficient (logD, measured by HPLC, log k')
# [3] = not given; remark: listed apart in the source
# [4] = not given; remark: listed apart in the source
# [5] = not given; remark: listed apart in the source
# [6] = not given; remark: listed apart in the source
# [7] = not given; remark: listed apart in the source
# [8] = not given; remark: listed apart in the source
# [9] = physchem; settings: octanol/water
# [10] = physchem; settings: octanol/water; remark: listed apart in the source
# [11] = as §1; settings: octanol/water, pH 7.4; remark: listed apart in the source
# [12] = not given; remark: listed apart in the source
# [13] = not given; remark: listed apart in the source
# [14] = not given; remark: listed apart in the source
# [15] = not given; remark: listed apart in the source
# [16] = not given; remark: listed apart in the source
# [17] = not given; remark: listed apart in the source
# [18] = not given; remark: listed apart in the source
# [19] = physchem; settings: octanol/water, pH 7.4
# [20] = (§2) logD (measured by HPLC) (as log k'); format: ADME
# [21] = species on record: Rattus norvegicus
# [22] = species on record: Rattus norvegicus; remark: listed apart in the source
# Description: Apparent partition coefficient was measured as histamine releasing activity in rat mast cells.
# [23] = target: Serum albumin (Bos taurus) (UniProt P02769); assay: BSA binding (log K)
# [24] = as §1; format: physicochemical; settings: octanol/water, pH 7.4
# [25] = as §2; format: ADME; remark: listed apart in the source
# [26] = as §2; format: ADME; remark: listed apart in the source
# [27] = The compound was tested for its ability to inhibit Na+/K+ ATPase in rat brain.; format: tissue-based
# [28] = species on record: Rattus norvegicus; assay: pKa value was measured by water/octanol using shake-flask method.
# [29] = not given; remark: listed apart in the source
# [30] = not given; remark: listed apart in the source
# [31] = species on record: Rattus norvegicus; remark: listed apart in the source
# [32] = (§3) Partition coefficient (logD) (HPLC); format: physicochemical; settings: octanol/water
# [33] = as §3; format: physicochemical; settings: octanol/water; remark: listed apart in the source
SMILES,logD [1],Log k' [2],Log k' [3],Log k' [4],Log k' [5],Log k' [6],Log k' [7],Log k' [8],Log k' [13],Log k' [14],Log k' [16],Log k' [17],logD [19],also measured
Cc1cccc(C)c1NC(=O)C1CCCCN1C (stereo not given) [MEPIVACAINE],1.27,-0.098,0.008,-0.462,-0.492,-0.564,0.051,0.008,–,–,–,–,–,Log k': -0.429; logD [9]: 1.22; logD [10]: 1.26
O=[N+]([O-])c1ccccc1 [NITROBENZENE],1.88,0.564,–,–,–,–,–,–,–,–,–,–,–,–
O=C(NC1CCN(CCc2c[nH]c3ccccc23)CC1)c1ccccc1 [INDORAMIN],2.313,0.858,–,–,–,0.297,1.049,–,0.413,0.536,0.136,-0.055,2.28,logD [11]: 2.27; Log k' [12]: 0.536; Log k' [15]: 0.348; Log k' [18]: 1.028
CN1CCCCC1CCN1c2ccccc2Sc2ccc([S+](C)[O-])cc21 (stereo not given) [MESORIDAZINE],1.8,1.045,–,–,–,–,–,–,–,–,–,–,–,Log k': 0.923; logD [9]: 1.84; logD [10]: 1.78
CN(C)CCCN1c2ccccc2CCc2ccccc21 [IMIPRAMINE],–,1.194,–,–,–,–,–,–,0.934,–,–,–,–,Log k' [12]: 1.145; Log k' [15]: 0.806; Log k' [18]: 1.227
c1ccc2nc3ccccc3cc2c1 [ACRIDINE],3.29,1.993,1.447,0.775,0.685,1.501,2.146,2.103,–,–,–,–,–,Log k': 1.556
CN(C)CCCN1c2ccccc2Sc2ccccc21 [PROMAZINE],2.48,1.378,–,–,–,0.927,1.351,–,1.117,1.465,1.252,0.505,2.54,pKa [11]: 9.42; Log k' [20]: 1.47; Log k' [15]: 0.907; Log k' [18]: 1.345; Log 1/ED50 [21]: 2.05; Papp [22]: 2.15; Log K [23]: 3.21
CN(C)CCC=C1c2ccccc2COc2ccccc21 [DOXEPIN],2.22,1.044,–,–,–,0.632,1.115,–,0.778,1.025,0.886,0.33,2.2,logD [24]: 2.22; Log k' [12]: 1.025; Log k' [15]: 0.642; Log k' [18]: 1.086; logD [9]: 2.36; logD [10]: 2.32
CN1CCN(CCCN2c3ccccc3Sc3ccc(Cl)cc32)CC1 [PROCHLORPERAZINE],–,–,–,1.907,1.571,–,–,2.767,–,–,–,–,–,pKa [11]: 8.1; Log k' [20]: 2.292; Log 1/ED50 [21]: 2.75; Papp [22]: 2.4; BSA binding [23]: 3.83
CC(CN1c2ccccc2Sc2ccccc21)N(C)C (stereo not given) [PROMETHAZINE],2.849,1.595,–,–,–,1.172,1.67,–,1.271,1.512,–,–,2.79,Log k' [25]: 1.252; Log k' [26]: 0.757; Log k' [20]: 1.512; Activity [27]: -0.37; pKa [28]: 9.4; Log k' [29]: 1.176; Log k' [30]: 1.669; Log 1/ED50 [31]: 1.82
CN1CCN(C2=Nc3cc(Cl)ccc3Nc3ccccc32)CC1 [CLOZAPINE],2.99,–,1.725,–,–,1.136,1.734,1.73,–,–,1.15,0.817,–,logD [32]: 1.4; logD [33]: 1.66
CCC(=O)O[C@](Cc1ccccc1)(c1ccccc1)[C@H](C)CN(C)C [PROPOXYPHENE],2.36,1.124,0.769,0.673,0.483,–,1.263,1.259,–,0.656,–,–,–,Log k': 0.795
CCN(CC)CCOc1ccc2c(c1)C(=O)c1cc(OCCN(CC)CC)ccc1-2 [TILORONE],1.47,0.183,–,–,–,0.007,0.234,–,0.325,0.701,–,–,1.31,Log k' [25]: 0.051; Log k' [26]: -0.412; logD [24]: 1.47; Log k' [12]: 0.701; Log k' [29]: 0.113; Log k' [30]: 0.229; logD [9]: 1.44; logD [10]: 1.48
CCCCOc1cc(C(=O)NCCN(CC)CC)c2ccccc2n1 [DIBUCAINE],2.91,1.588,1.11,0.915,0.501,1.064,1.651,1.642,–,–,–,–,–,Log k': 1.215
CN(C)CCCN1c2ccccc2Sc2ccc(Cl)cc21 [CHLORPROMAZINE],3.221,2.061,–,–,–,1.656,2.144,–,1.751,1.911,1.632,1.086,3.17,Log k' [20]: 1.911; Log k' [30]: 2.144; Log k' [15]: 1.667; Papp [22]: 2.92
CN(C)CCC(c1ccc(Cl)cc1)c1ccccn1 (stereo not given) [CHLORPHENIRAMINE],1.38,–,0.074,0.334,-0.329,0.007,0.273,0.262,–,–,–,–,–,logD [32]: 0.466; logD [33]: 0.466; logD [9]: 1.53; logD [10]: 1.51
COc1ccccc1N1CCN(CCCC(=O)c2ccc(F)cc2)CC1 [FLUANISONE],2.93,1.448,1.64,0.805,1.063,0.996,1.669,1.64,–,–,–,–,–,Log k': 1.175
CNCCC=C1c2ccccc2CCc2ccccc21 [NORTRIPTYLINE],1.98,1.162,–,–,–,–,–,–,–,–,0.899,0.349,–,pKa [11]: 9.73; Log 1/ED50 [21]: 1.76; Papp [22]: 1.8; logD [9]: 2.04; logD [10]: 2.01
c1ccccc1 [BENZENE],–,0.874,–,–,–,–,–,–,–,–,–,–,–,–
CN1CCC(=C2c3ccccc3C=Cc3ccccc32)CC1 [CYPROHEPTADINE],3.11,1.853,–,–,–,1.516,1.999,–,1.527,1.715,1.43,1.037,3.14,Log k' [12]: 1.715; Log k' [15]: 1.529; Log k' [18]: 1.984
Clc1ccccc1 [CHLOROBENZENE],2.87,–,1.61,0.773,1.022,1.027,1.631,1.61,–,–,–,–,–,logD [32]: 1.05; logD [33]: 1.56

# Reference: ChEMBL document CHEMBL1121794, “Octanol-physiological buffer distribution coefficients of lipophilic amines by reversed-phase high-performance liquid chromatography and their correlation with biological activity” (J Med Chem, 1981)
